Laboratory results: patent publication US20210221848A1, “POLYMYXIN DERIVATIVES AND THEIR USE IN COMBINATION THERAPY TOGETHER WITH DIFFERENT ANTIBIOTICS” (priority 2014, published 2021)

Tests used:
[1] = test system: A. baumanii strains with elevated MICs to Polymyxin B; assay: MIC against strains with elevated MICs to Polymyxin B; type: cell-based, Acinetobacter baumannii; conditions: Table 6D; for MIC A. baumannii 053: strain 053, elevated MIC to Polymyxin B; for MIC A. baumannii 056: strain 056, elevated MIC to Polymyxin B; for MIC A. baumannii 068: strain 068, elevated MIC to Polymyxin B; for MIC A. baumannii 070: strain 070, elevated MIC to Polymyxin B
In short: (§1)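 Inoculum was a direct suspension of colonies from an 18-24 hour Mueller-Hinton agar plate, adjusted to the 0.5 McFarland standard. Duplicate assays; the lower value was reported when duplicates differed by less than 2-fold, otherwise the run was invalid. Repeat-tested compounds give the modal MIC.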

K. pneumoniae [2] = conditions: absence of a second agent, Table 6B
A. baumannii [3] = conditions: absence of a second agent, Table 6B
[4] = test system: E. coli strains with elevated MICs to Polymyxin B; assay: MIC against strains with elevated MICs to Polymyxin B; type: cell-based, Escherichia coli; conditions: Table 6D; for MIC E. coli 059: strain 059, elevated MIC to Polymyxin B; for MIC E. coli 060: strain 060, elevated MIC to Polymyxin B; for MIC E. coli 061: strain 061, elevated MIC to Polymyxin B; for MIC E. coli 058: strain 058, elevated MIC to Polymyxin B
In short: as §1

[5] = test system: P. aeruginosa strains with elevated MICs to Polymyxin B; assay: as above; type: cell-based, Pseudomonas aeruginosa; conditions: Table 6D; for MIC P. aeruginosa 066: strain 066, elevated MIC to Polymyxin B; for MIC P. aeruginosa 067: strain 067, elevated MIC to Polymyxin B
In short: as §1

K. pneumoniae [6] = assay: MIC in the presence of a fixed concentration (2 μg/mL) of Rifampicin; type: cell-based, Klebsiella pneumoniae; conditions: Rifampicin 2 μg/mL, Table 5D
Description: (§2) The inoculum was prepared by making a direct suspension of isolated colonies (selected from an 18-24 hour Mueller-Hinton agar plate) adjusted to the 0.5 McFarland standard. […] The assays were performed in duplicate. […] In cases where the duplicate values varied by less than 2-fold, the lower of the two values is reported. If a variation of greater than 2-fold was observed, the assay was considered non-valid. Several of the compounds were subjected to multiple tests, and where this is the case, the MIC reflects the modal value obtained.

P. aeruginosa = conditions: absence of a second agent, Table 6B
E. coli [7] = assay: MIC in the presence of a fixed concentration (2 μg/mL) of Rifampicin; type: cell-based, Escherichia coli; conditions: Rifampicin 2 μg/mL, Table 5D
A. baumannii [8] = assay: MIC in the presence of […] of rifampicin; type: cell-based, Acinetobacter baumannii; conditions: for MIC in combination with Rifampicin, A. baumannii ATCC BAA-747: A. baumannii ATCC BAA-747, Table 5D; for MIC in combination with Rifampicin, A. baumannii NCTC 13424: A. baumannii NCTC 13424, Table 5D
Description: as §2

E. coli [9] = conditions: absence of a second agent, Table 6B
[10] = test system: K. pneumoniae strains with elevated MICs to Polymyxin B; assay: MIC against strains with elevated MICs to Polymyxin B; type: cell-based, Klebsiella pneumoniae; conditions: Table 6D; for MIC K. pneumoniae 062: strain 062, elevated MIC to Polymyxin B; for MIC K. pneumoniae 063: strain 063, elevated MIC to Polymyxin B; for MIC K. pneumoniae 064: strain 064, elevated MIC to Polymyxin B; for MIC K. pneumoniae 655: strain 655, elevated MIC to Polymyxin B
In short: as §1

HK-2 cell line = assay: In vitro renal cell toxicity assay (resazurin reduction)
Description: MICs were determined as described herein. HK-2 cell IC50 values were determined as described herein. Values are reported relative to Polymyxin B.

Row | Compound | MIC A. baumannii 053 [1] [micrograms/mL] | MIC A. baumannii 056 [1] [micrograms/mL] | MIC A. baumannii 068 [1] [micrograms/mL] | MIC A. baumannii 070 [1] [micrograms/mL] | MIC, K. pneumoniae ATCC 4352 (K. pneumoniae [2]) [micrograms/mL] | MIC, K. pneumoniae ATCC BAA-2146 (K. pneumoniae [2]) [micrograms/mL] | MIC, A. baumannii ATCC BAA-747 (A. baumannii [3]) [micrograms/mL] | MIC, A. baumannii NCTC 13424 (A. baumannii [3]) [micrograms/mL] | MIC E. coli 059 [4] [micrograms/mL] | MIC E. coli 060 [4] [micrograms/mL] | MIC in combination with Rifampicin, K. pneumoniae ATCC 4352 (K. pneumoniae [6]) [micrograms/mL] | MIC in combination with Rifampicin, K. pneumoniae ATCC BAA-2146 (K. pneumoniae [6]) [micrograms/mL] | MIC, P. aeruginosa ATCC 27853 (P. aeruginosa) [micrograms/mL] | MIC, P. aeruginosa CCUG 59347 (P. aeruginosa) [micrograms/mL] | MIC in combination with Rifampicin, E. coli ATCC 25922 (E. coli [7]) [micrograms/mL] | MIC in combination with Rifampicin, E. coli NCTC 13441 (E. coli [7]) [micrograms/mL] | MIC in combination with Rifampicin, A. baumannii ATCC BAA-747 (A. baumannii [8]) [micrograms/mL] | MIC in combination with Rifampicin, A. baumannii NCTC 13424 (A. baumannii [8]) [micrograms/mL] | MIC, E. coli ATCC 25922 (E. coli [9]) [micrograms/mL] | MIC, E. coli NCTC 13441 (E. coli [9]) [micrograms/mL] | also measured
1 | 2-(2-aminoethyl)- undecanoyl polymyxin B nonapeptide [Example D26] | 8 | 4 | 2 | 2 | 1 | 2 | 0.5 | 2 | 0.5 | 2 | 0.5 | 4 | 0.5 | 0.5 | 0.25 | 1 | 2 | 1 | 0.5 | 2 | MIC E. coli 061 [4]: 4 micrograms/mL; MIC P. aeruginosa 066 [5]: 1 micrograms/mL; MIC P. aeruginosa 067 [5]: 8 micrograms/mL; MIC K. pneumoniae 062 [10]: 2 micrograms/mL; MIC K. pneumoniae 063 [10]: 4 micrograms/mL; MIC K. pneumoniae 064 [10]: 0.5 micrograms/mL; MIC K. pneumoniae 655 [10]: 4 micrograms/mL
2 | CC(C)CC1CNCC1C(=O)N[C@H](C(=O)N[C@@H](CCN)C(=O)N[C@H]1CCNC(=O)[C@H]([C@@H](C)O)NC(=O)[C@H](CCN)NC(=O)[C@H](CCN)NC(=O)[C@H](CC(C)C)NC(=O)[C@@H](Cc2ccccc2)NC(=O)[C@H](CCN)NC1=O)[C@H](C)O (single isomer, unassigned) [Example D39, trans-4-(2-methylpropyl) pyrrolidine-3-carbonyl polymyxin B nonapeptide] | – | – | – | – | – | – | – | – | – | – | – | – | – | – | – | – | – | – | – | – | HK-2 IC50 rel to PMB (HK-2 cell line): 5.4
3 | (S)-1-octyl-piperazine- 2-carbonyl polymyxin B nonapeptide [Example D28] | 32 | 16 | 4 | 4 | 0.25 | 0.5 | 0.25 | 1 | 0.5 | 2 | 0.5 | 2 | 0.5 | 1 | 1 | 0.5 | 1 | 1 | 0.125 | 0.125 | MIC E. coli 058 [4]: 0.5 micrograms/mL; MIC E. coli 061 [4]: 4 micrograms/mL; MIC P. aeruginosa 065 ([5]; strain 065, elevated MIC to Polymyxin B): 0.5 micrograms/mL; MIC P. aeruginosa 066 [5]: 4 micrograms/mL; MIC P. aeruginosa 067 [5]: 32 micrograms/mL; MIC K. pneumoniae 062 [10]: 8 micrograms/mL; MIC K. pneumoniae 063 [10]: 16 micrograms/mL; MIC K. pneumoniae 064 [10]: 2 micrograms/mL; MIC K. pneumoniae 655 [10]: 16 micrograms/mL
4 | 2-(2-aminoethyl)- undecanoyl polymyxin B nonapeptide [Example D27] | 64 | 32 | 2 | 4 | 0.25 | 0.5 | 0.25 | 1 | 2 | 4 | 0.5 | 4 | 0.5 | 0.5 | 0.125 | – | 1 | 1 | 0.125 | 0.06 | MIC E. coli 058 [4]: 2 micrograms/mL; MIC E. coli 061 [4]: 16 micrograms/mL; MIC P. aeruginosa 066 [5]: 16 micrograms/mL; MIC P. aeruginosa 067 [5]: >64 micrograms/mL; MIC K. pneumoniae 062 [10]: 16 micrograms/mL; MIC K. pneumoniae 063 [10]: 64 micrograms/mL; MIC K. pneumoniae 064 [10]: 16 micrograms/mL; MIC K. pneumoniae 655 [10]: 64 micrograms/mL
5 | (5-Phenyl-piperidine)- 3-carbonyl polymyxin B nonapeptide [Example D7] | – | – | – | – | 8 | >8 | >8 | >8 | – | – | 0.125 | 0.5 | 2 | >8 | 0.06 | 0.5 | 1 | 0.03 | >8 | >8 | –
6 | (cis-5-cyclohexyl- piperidine)-3-carbonyl polymyxin B nonapeptide [Example D10] | – | – | – | – | 8 | >8 | >8 | 8 | – | – | 0.125 | 0.25 | 1 | 2 | – | 0.5 | 0.5 | ≤0.015 | 4 | 4 | –
7 | (trans-5-cyclohexyl- piperidine)-3-carbonyl polymyxin B nonapeptide [Example D13] | – | – | – | – | 0.125 | 0.25 | 0.5 | 0.125 | – | – | 0.125 | 0.125 | 0.5 | 0.5 | 0.06 | 0.125 | 0.125 | 0.06 | – | 0.125 | –
